These results are taken from ChEMBL document CHEMBL3727361, “Nitrogen bicyclic compounds as inhibitors for Scyl1 and Grk5” (2014).

In the assay the test system is Beta-TC6. Nature of the assay: Increase in insulin release in mouse BetaTC6 cells assessed as relative insulin release activity at 10 uM incubated for 2 to 4 hrs by FRET based HTRF assay relative to sunitinib. In kind it is functional. (In general: Time-resolved FRET reads energy transfer from a long-lived donor to a nearby acceptor.)
In the case of `COc1ccc(-c2nnc3ccc(-c4cccc(F)c4)cn23)cc1OC`, the Activity entry was “>=100%”.

As to `CCOc1ccc(-c2cnc3cccnn23)cc1`, the Activity was found to be 10%.

Turning to `Oc1cccc(-c2cnc3cnc(-c4cccc(Cl)c4)cn23)c1`, the Activity amounted to 20%.

As to `O=C(Cc1ccsc1)Nc1cnc2cnc(-c3ccccc3F)cn12`, the Activity was 10%.

With `Fc1ccc(-c2ccc3ncc(-c4cccs4)n3n2)cc1Cl`, the Activity came to 20%.

Take `FC(F)(F)Oc1cccc(-c2nnc3ccc(-c4cccs4)cn23)c1`: the Activity came to 50%.

Turning to `CC(=O)Nc1ccc(-c2ccc3nnc(-c4cccc(Cl)c4)n3c2)cc1`, the Activity came to 20%.

With `CN(C)c1ccc(-c2cnc3cnc(-c4ccc(CO)cc4)cn23)cc1`, the Activity came to 50%.

As to `CC(=O)Nc1ccc(-c2cnc3ccc(-c4ccc5c(c4)OCO5)nn23)cc1`, the Activity result was “>=100%”.

As for `Cc1cccc(-c2cn3c(-c4ccc(CCC(=O)O)cc4)cnc3cn2)c1C`, the Activity was determined as 50%.

Turning to `CN1CCN(c2ccc(-c3cn4c(-c5cccc(O)c5)cnc4cn3)cc2)CC1`, the Activity was 20%.

Regarding `Cc1ccc(CNc2ccc3ncc(-c4ccc(O)cc4)n3n2)c(C)c1`, the Activity was 20%.

In the case of `Oc1cccc(-c2cnc3cnc(/C=C/c4ccccc4)cn23)c1`, the Activity is 20%.

Turning to `O=C(Nc1cnc2cnc(-c3cnn(Cc4ccccc4)c3)cn12)C1CCC1`, the Activity was 20%.

Turning to `CN(C)c1ccc(-c2ccc3ncc(-c4ccc(CO)cc4)n3n2)cc1`, the Activity came out at 50%.

`Clc1cccc(-c2nnc3ccc(-c4ccncc4)cn23)c1`: the Activity came out at 50%.

For the compound `Clc1cccc(-c2nnc3ccc(-c4cccnc4)cn23)c1`, the Activity is 50%.

Turning to `Nc1cccc(-c2cn3c(-c4cccc(F)c4)cnc3cn2)c1`, the Activity amounted to 20%.

In the case of `CN(C)c1ccc(-c2cnc3cnc(-c4ccccc4N(C)C)cn23)cc1`, the Activity was 20%.

`CC(=O)Nc1ccc(-c2cnc3ccc(-c4ccc(S(C)(=O)=O)cc4)nn23)cc1`: the Activity is reported as 10%.

In the case of `CC(C)Oc1cccc(-c2cn3c(-c4cccc(CO)c4)cnc3cn2)c1`, the Activity was found to be 20%.

`CN1CCN(c2ccc(-c3cn4c(-c5ccc(C(=O)N(C)C)cc5)cnc4cn3)cn2)CC1`: the Activity came out at 20%.

Regarding `N#Cc1ccc(-c2cnc3cnc(-c4ccc(Cl)cc4)cn23)cc1`, the Activity turned out to be 50%.

`CN(C)C(=O)c1ccc(-c2cnc3cnc(-c4ccsc4)cn23)cc1`: the Activity is 20%.

On to `CN(C)CCNC(=O)c1cccc(-c2ccc3nnc(-c4ccc5nccnc5c4)n3c2)c1`, for which the Activity entry is “>=100%”.

On to `c1cc(-c2cn3c(-c4ccc5c(c4)OCO5)cnc3cn2)cs1`, for which the Activity was 50%.

For the compound `Nc1ccc(-c2cnc3ccc(Cc4ccccc4)nn23)cn1`, the Activity worked out at 20%.

As to `Oc1cccc(-c2cnc3ccc(-c4ccc(F)cc4)nn23)c1`, the Activity was found to be 20%.

Consider `CN(C)c1ccc(-c2cnc3cnc(-c4ccc(C(=O)N5CCOCC5)cc4)cn23)cc1`, for which the Activity is given as 20%.

Take `COc1cc(-c2cn3c(-c4ccc5c(ccn5C)c4)cnc3cn2)ccc1O`: the Activity was determined as 20%.

As to `c1cncc(-c2cnc3ccc(-c4ccoc4)nn23)c1`, the Activity was 20%.

As for `CC(C(=O)Nc1cnc2cnc(-c3ccc4c(c3)OCO4)cn12)c1ccccc1` (stereo not given), the Activity was 20%.

As to `CN(C)C(=O)c1cccc(-c2cn3c(-c4ccc(N(C)C)cc4)cnc3cn2)c1`, the Activity was determined as 20%.

Turning to `Fc1cccc(-c2cn3c(-c4ccc5c(c4)OCO5)cnc3cn2)c1`, the Activity amounted to 50%.

On to `c1cc(-c2ccc3nnc(-c4ccc5c(c4)OCO5)n3c2)co1`, for which the Activity is listed as 50%.

With `COc1ccc(-c2cnc3cnc(-c4ccc(N5CCN(C)CC5)cc4)cn23)cn1`, the Activity came out at 20%.

As to `CSc1ccc(-c2cn3c(-c4cccc(CO)c4)cnc3cn2)cc1`, the Activity is 20%.

Turning to `CN(C)c1cccc(-c2ccc3nnc(-c4cscn4)n3c2)c1`, the Activity came out at 50%.

For `Oc1cccc(-c2nnc3ccc(-c4ccc(F)cc4)cn23)c1`, the Activity is recorded as 50%.

Turning to `CC(=O)c1cccc(-c2cn3c(NC(=O)CC4CC4)cnc3cn2)c1`, the Activity worked out at 20%.

As to `COc1cccc(CC(=O)Nc2cnc3cnc(-c4ccc(Oc5ccccc5)cc4)cn23)c1`, the Activity came to 10%.

`COc1cc(-c2cnc3cnc(-c4ccc(NCCN5CCOCC5)nc4)cn23)ccc1O`: the Activity amounted to 20%.

In the case of `COc1ccc(CNc2ccc3ncc(-c4ccc(OC)cc4OC)n3n2)cc1`, the Activity is listed as 10%.

For the compound `Oc1cccc(-c2nnc3ccc(-c4cccc5ncccc45)cn23)c1`, the Activity was found to be 20%.

Regarding `Clc1cccc(-c2nnc3ccc(-c4cncnc4)cn23)c1`, the Activity is given as 20%.

`COc1cccc(C#Cc2ccc3nnc(-c4cccc(OC(F)(F)F)c4)n3c2)c1`: the Activity was found to be 20%.

Consider `COc1ccc(-c2cnc3cnc(-c4cccc(C(N)=O)c4)cn23)cn1`, for which the Activity is given as 20%.

For `COc1cc(-c2cnc3cnc(-c4cnn(C)c4)cn23)ccc1O`, the Activity was determined as 50%.

`Cn1ccc2cc(-c3cnc4cnc(-c5cccc(C(N)=O)c5)cn34)ccc21`: the Activity came to 20%.

Consider `CCCNc1ccc2ncc(-c3cccc(/C=C/C(=O)O)c3)n2n1`, for which the Activity is reported as 10%.

Turning to `COc1cc(-c2ccc3nnc(-c4ccoc4)n3c2)cc(OC)c1OC`, the Activity is reported as 50%.

Regarding `CSc1ccc(-c2cnc3cccnn23)cc1`, the Activity is given as 10%.

As for `CS(=O)(=O)c1cccc(-c2ccc3nnc(-c4cccc(OC(F)(F)F)c4)n3c2)c1`, the Activity was found to be 50%.

Turning to `CCOc1cccc(-c2cn3c(-c4ccc(O)c(OC)c4)cnc3cn2)c1`, the Activity stood at 50%.

Turning to `CNC(=O)c1cccc(-c2ccc3nnc(-c4ccc5c(c4)OCO5)n3c2)c1`, the Activity is listed as 20%.

Regarding `Clc1ccccc1-c1ccc2ncc(-c3cccs3)n2n1`, the Activity is on record as 10%.

Regarding `Cc1cccc(-c2cnc3cccnn23)c1`, the Activity amounted to 10%.

Regarding `COc1ccc(-c2ccc3nnc(-c4ccc(O)c(OC)c4)n3c2)cn1`, the Activity is listed as 50%.

Turning to `O=C(O)CCc1ccc(-c2cnc3cnc(-c4ccccc4CO)cn23)cc1`, the Activity is 20%.

Take `C(=C\c1cnc2cccnn12)/c1ccccc1`: the Activity is listed as 20%.

`Cn1cc(-c2cnc3cnc(-c4cc5ccccc5s4)cn23)cn1`: the Activity is reported as 20%.

As to `Cc1ccccc1-c1cn2c(-c3ccc(CCC(=O)O)cc3)cnc2cn1`, the Activity was 20%.

For `OCc1ccc(-c2cn3c(-c4cccs4)cnc3cn2)cc1`, the Activity was 20%.

On to `OC1CCC(Nc2ccc3ncc(Br)n3n2)CC1` (stereo not given), for which the Activity turned out to be 10%.

As for `COc1ccc(-c2ccc3nnc(-c4cscn4)n3c2)c(C)c1`, the Activity is listed as 50%.

`N#Cc1cccc(-c2cnc3cccnn23)c1`: the Activity came to 20%.

As to `c1ccc(Cn2cc(-c3cn4c(-c5ccc6c(c5)OCO6)cnc4cn3)cn2)cc1`, the Activity is 50%.

As for `c1cnn2c(-c3ccc4c(c3)CCO4)cnc2c1`, the Activity stood at 10%.

For `COc1ccc(-c2ccc3nnc(-c4ccc(OCCCN(C)C)cc4)n3c2)cc1OC`, the Activity was 50%.

Turning to `COc1ccc(-c2ccc3nnc(-c4ccccc4C)n3c2)cc1OC`, the Activity worked out at 50%.

On to `CN(C)c1ccc(-c2cnc3cnc(-c4ccc(C(=O)NCCO)cc4)cn23)cc1`, for which the Activity was 50%.

Take `COc1cccc(CC(=O)Nc2cnc3cnc(-c4ccccc4CN(C)C)cn23)c1`: the Activity is 20%.

In the case of `CN1CCN(C(=O)c2cccc(-c3cnc4cnc(-c5ccc(CNc6ccccc6)cc5)cn34)c2)CC1`, the Activity worked out at 10%.

With `COc1ccc(-c2nnc3ccc(-c4cccs4)cn23)cc1OC`, the Activity is listed as 50%.

As to `CS(=O)(=O)Nc1cccc(-c2ccc3nnc(-c4ccccc4)n3c2)c1`, the Activity came out at 50%.

On to `OCc1cccc(-c2cnc3ccc(-c4cccc(Oc5ccccc5)c4)nn23)c1`, for which the Activity is given as 20%.

`CCCNc1ccc2ncc(-c3ccc(C(=O)O)cc3)n2n1`: the Activity worked out at 10%.

For `CN(C)c1cccc(-c2cnc3cnc(-c4ccsc4)cn23)c1`, the Activity worked out at 50%.

Consider `CC(=O)c1ccc(-c2cn3c(-c4ccc(C(=O)NC5CC5)cc4)cnc3cn2)s1`, for which the Activity stood at 20%.

Regarding `COc1cc(-c2nnc3ccc(-c4ccccc4C)cn23)ccc1O`, the Activity is recorded as 50%.

In the case of `O=C(NCCO)c1ccc(-c2cn3c(-c4ccsc4)cnc3cn2)cc1`, the Activity worked out at 10%.

On to `O=C(NCCO)c1ccc(-c2cn3c(-c4cccs4)cnc3cn2)cc1`, for which the Activity turned out to be 10%.

Regarding `CN(C)CCCNC(=O)c1ccc(-c2cn3c(-c4ccc5c(ccn5C)c4)cnc3cn2)cc1`, the Activity is 20%.

As to `COc1ccc(-c2ccc3nnc(-c4ccncc4)n3c2)cc1OC`, the Activity is on record as 20%.

With `CN(C)c1cccc(-c2cnc3cnc(-c4ccc(CO)cc4)cn23)c1`, the Activity was 20%.

As for `COc1cc(-c2cn3c(-c4ccc5ncccc5c4)cnc3cn2)ccc1O`, the Activity was determined as 20%.

Take `CN(C)C(=O)c1cccc(-c2ccc3nnc(-c4ccc5nccnc5c4)n3c2)c1`: the Activity is on record as 50%.

With `COc1ccc(-c2cnc3cnc(-c4ccc(CO)cc4)cn23)cc1`, the Activity worked out at 50%.

In the case of `COc1cccc(-c2cn3c(-c4cccc(O)c4)cnc3cn2)c1F`, the Activity is reported as 20%.

For the compound `O=C(O)CCc1ccc(-c2cnc3cnc(-c4cccc(Cl)c4)cn23)cc1`, the Activity came to 20%.

Regarding `c1cncc(CCNc2ccc3ncc(-c4ccc(N5CCOCC5)cc4)n3n2)c1`, the Activity turned out to be 50%.

As to `COc1cc(-c2ccc3nnc(-c4ccc5nccnc5c4)n3c2)ccc1O`, the Activity was found to be 50%.

For `c1cncc(-c2cnc3cnc(-c4cc5ccccc5s4)cn23)c1`, the Activity is listed as 20%.

`CN(C)c1ccc(-c2cnc3cnc(-c4ccc(O)cc4)cn23)cc1`: the Activity came to 50%.

As for `CN(C)CCNC(=O)c1ccc(-c2cn3c(-c4ccc(N(C)C)cc4)cnc3cn2)cc1`, the Activity stood at 50%.
